# Assay results reported in PMC9963438, “Emerging Effects of Resveratrol Derivatives in Cells Involved in Oral Wound Healing: A Preliminary Study” (International Journal of Molecular Sciences, 2023).
# How the values were obtained:
# HUVECs [1] = experiment: LDH release assay on HUVECs; assay type: cell-based, human; details: 24 h
# Protocol: (§1) Lactate Dehydrogenase (LDH) activity in HUVECs, HGFs, and HOBs was measured with a cytotoxicity detection kit LDH (Roche, Basilea, Swiss). Firstly, 5000 cells/well (HUVECs, HGFs and HOBs) were seeded in 96-well plates and treated with 1d and 1h (5, 10, 20 µM). After 24 h, the assay was performed according to manufacturer instructions. LDH release was calculated as a percentage with respect to the control (CTRL).
# HGFs [2] = experiment: LDH release assay on HGFs; assay type: cell-based, human; details: 24 h
# Protocol: as §1
# HOBs [3] = experiment: LDH release assay on HOBs; assay type: cell-based, human; details: 24 h
# Protocol: as §1
# HUVECs [4] = experiment: MTT viability/proliferation on HUVECs; assay type: cell-based, human
# Protocol: (§2) To measure HUVECs, HGFs, and HOBs metabolic activity as an indicator of cell viability and proliferation, an MTT assay (Sigma Aldrich, Milan, Italy) was performed. In brief, 8000 cells/well (HUVECs, HGFs and HOBs) were seeded in 96-well plates and after 24 h cells were treated with increasing concentrations of 1d and 1h for 48 h and 72 h. Then, the medium was replaced by a fresh one supplemented with […] MTT and probed for 4 h at 37 °C. The medium containing MTT was discarded and replaced by an equal volume of DMSO to dissolve formazan crystals. The absorbance of the solution was read at a 540 nm wavelength by a microplate reader (Multiskan GO, Thermo Scientific, MA, USA). Values obtained without cells were considered as background. Viability and proliferation were normalized to control cells treated with DMSO 0.1%.
# HGFs [5] = experiment: MTT viability/proliferation on HGFs; assay type: cell-based, human; details: vs CTRL and RSV 10 µM
# Protocol: For the initial screening, HGFs were seeded at a density of 8000 cells/well into a 96-well culture plate and cultured for 24 h. […] The DMSO final concentration was established at 0.1% in all tested samples.
# as §2
# HOBs [6] = experiment: MTT viability/proliferation on HOBs; assay type: cell-based, human; details: vs CTRL and RSV 10 µM
# Protocol: as §2
# HUVECs [7] = experiment: Toluidine blue staining, morphology and confluence of HUVECs; assay type: cell-based, human; details: 5 µM; for HUVECs confluence: 48 h, compared to CTRL and RSV; for HUVECs growth / confluence: 72 h, compared to controls
# Protocol: (§3) The influence of 1d and 1h was evaluated on cells density and morphology by toluidine-blue staining. A total of 2 × 10^4 cells/well were cultured in 24-well plates and were incubated at 37 °C and 5% CO2 with tested compounds at 5 µM. After 48 and 72 h, adherent cells were fixed with 70% cold ethanol and stained with 1% toluidine blue and 1% borax (Sigma Aldrich, St. Louis, MO, USA). Cells were then observed by an inverted microscope connected with a camera at 40×, 100×, and 200× magnifications (Leica, Wild Heer-brugg, Wetzlar, Germany).
# HGFs [8] = experiment: Toluidine blue staining, morphology and confluence of HGFs; assay type: cell-based, human; details: for HGFs confluence: compared to controls
# Protocol: as §3
# COL1 mRNA in HGFs = experiment: RT-qPCR of COL1 in HGFs; assay type: cell-based, human
# Protocol: (§4) Total RNA was isolated using Trifast reagent (EuroClone) according to the manufacturer instructions from 3 × 10^5 cells/well treated with increasing concentrations of 1d and 1h for 48 h and 72 h. Complementary DNA (cDNA) was obtained using GoTaq® 2 Step RT-qPCR Kit (Promega, Madison, WI, USA) in accordance with the manufacturer’s instructions. RT-qPCR was carried out using SYBR Green (Promega) on the Quant Studio 7 Pro Real-Time PCR System (ThermoFisher, Waltham, MA, USA). The results were normalized to glyceraldehyde 3-phoshate dehydrogenase (GAPDH) for HUVECs and HGFs and to β-actin (βACT) for HOBs using the 2^−ΔΔCt method.
# FN1 mRNA in HGFs = experiment: RT-qPCR of FN1 in HGFs; assay type: cell-based, human; details: 5, 10, 20 µM, 48 and 72 h, compared to RSV-treated cells and CTRL
# Protocol: as §4
# ALP mRNA in HOBs = experiment: RT-qPCR of ALP in HOBs; assay type: cell-based, human; details: all concentrations (5, 10, 20 µM), compared to CTRL; not significant
# Protocol: as §4
# OCN mRNA in HOBs = experiment: RT-qPCR of OCN in HOBs; assay type: cell-based, human
# Protocol: as §4
# Water solubility = assay type: physicochemical; details: deionized water, 25 °C
# Protocol: An excess of compounds 1d and 1h was placed in 1 mL of deionized water and the suspension was shaken at 25 °C for 15 min to ensure the solubility equilibrium. Next, the supernatant was filtered (Millipore 0.45 µm, Burlington, Massachusetts, USA) and analyzed by HPLC [49].
# [9] = Kinetic of chemical hydrolysis, pH 7.0; assay type: physicochemical; details: pH 7.0, 37 °C; for Chemical hydrolysis Kobs: mean of three experiments (SD); for half-life at 18.2 µM: phosphate buffer, read-out: Chemical hydrolysis t ½ (converted)
# Protocol: A phosphate buffer (PBS, pH 7.0) was used to estimate the chemical stability. The reaction was started by adding 1 mL of a 2 × 10^−4 M stock solution in ACN to a thermostatic (37 ± 0.5 °C) aqueous buffer solution (8 mL) and 2 mL of acetonitrile, containing 0.1% (v/v) Cremophor ELP. At established time points, samples (200 µL) were withdrawn and analyzed by HPLC. Pseudo-first-order rate constants (kobs) for the hydrolysis of the compound were calculated from the slopes of the linear plots of log (% residual compound) against time. The results are expressed as mean values of three different experiments.
# [10] = 10 and 20 µM, differences not significant
# [11] = 5 µM, 72 h, vs CTRL and RSV 10 µM
# [12] = 10 µM, 48 h, vs CTRL and RSV 10 µM
# [13] = 10 µM, 72 h, vs CTRL and RSV 10 µM
# [14] = 20 µM, 72 h, vs CTRL and RSV 10 µM
# [15] = 72 h, 1d and 1h 5 µM, RSV 10 µM
# [16] = all concentrations (5, 10, 20 µM), 48 and 72 h
SMILES,LDH release (HUVECs [1]; 5 µM),LDH release (HUVECs [1]; [10]),LDH release (HGFs [2]; 5 µM),LDH release (HGFs [2]; [10]),LDH release (HOBs [3]; 5 µM),LDH release (HOBs [3]; [10]),HUVECs viability (MTT) (HUVECs [4]; [11]),HUVECs viability (MTT) (HUVECs [4]; [12]),HUVECs viability (MTT) (HUVECs [4]; [13]),HUVECs viability (MTT) (HUVECs [4]; [14]),"HGFs proliferation rate (MTT) (HGFs [5]; 5 µM, 48 h)","HGFs proliferation rate (MTT) (HGFs [5]; 5 µM, 72 h)","HOBs metabolic activity / proliferation (MTT) (HOBs [6]; 5 µM, 48 h)","HOBs metabolic activity / proliferation (MTT) (HOBs [6]; 5 µM, 72 h)","HOBs metabolic activity / proliferation (MTT) (HOBs [6]; 10 µM, 48 h)",HUVECs confluence (HUVECs [7]),HUVECs growth / confluence (HUVECs [7]),"HGFs morphology (HGFs [8]; 5 µM, 48 h)","HGFs confluence (HGFs [8]; 5 µM, 72 h)",HGFs morphology (HGFs [8]; [15]),other results
"CCS(=O)(=O)Nc1ccc(/C=C/c2ccccc2)cc1 [1h, N-{4-[(E)-2-Phenylvinyl]phenyl}ethanesulfonamide]",lowest LDH values,slightly increased the LDH,lowest LDH values,slightly increased the LDH,lowest LDH values,slightly increased the LDH,slightly favored cell growth with respect to RSV,viability was not induced,viability significantly decreased,viability significantly decreased,cell proliferation was significantly higher,cell proliferation was significantly higher,enhanced the metabolic activity of osteoblasts,significantly enhanced cell proliferation with respect to the CTRL,slightly promoted cell growth,reached confluence approximately earlier,growth was more consistent,short and broad and assumed a cuboid to polygonal aspect,nearly confluent,mainly appeared as long spindles,"HUVECs viability (MTT) (HUVECs [4]; 20 µM, 48 h, vs CTRL and RSV 10 µM): viability was not induced; HOBs metabolic activity / proliferation (MTT) (HOBs [6]; 20 µM, 48 h): decreased in respect to the CTRL and RSV; COL1 mRNA level (COL1 mRNA in HGFs; [16]): increase in COL1 mRNA level; FN1 mRNA level (FN1 mRNA in HGFs): no significant modifications; ALP mRNA level (ALP mRNA in HOBs): slight increase in the ALP mRNA level; OCN mRNA expression (OCN mRNA in HOBs; 5 µM, 48 h): significantly stimulated OCN levels with respect to the CTRL; OCN mRNA expression (OCN mRNA in HOBs; 10 and 20 µM, 48 h): slightly promoted; OCN mRNA expression (OCN mRNA in HOBs; 72 h, in respect to CTRL, levels comparable to RSV): slightly increased OCN expression; Water solubility (Water solubility): insoluble in water; Chemical hydrolysis Kobs [9]: 0.030 (±0.001) h^−1; half-life at 18.2 µM [9]: 23.4 h; melting point: 230 to 231 °C"
"Cc1ccc(S(=O)(=O)Nc2ccc(/C=C/c3ccccc3)cc2)cc1 [1d, 4-Methyl-N-{4-[(E)-2-phenylvinyl]phenyl}benzenesulfonamide]",lowest LDH values,slightly increased the LDH,lowest LDH values,slightly increased the LDH,lowest LDH values,slightly increased the LDH,significantly promoted cell viability with respect to RSV,slightly increased for 10 µM only with respect to RSV,viability was not enhanced,viability was not enhanced,significant increase in proliferation rate,significantly promoted cell proliferation,enhanced the metabolic activity of osteoblasts,significantly promoted the proliferation of cells,slightly promoted cell growth,reached confluence approximately earlier,growth was more consistent,short and broad and assumed a cuboid to polygonal aspect,nearly confluent,mainly appeared as long spindles,"HUVECs viability (MTT) (HUVECs [4]; 5 µM, 48 h, vs CTRL (0.1% DMSO) and RSV 10 µM): slight increase in metabolic activity at 5 µM compared to the CTRL and a significant increase compared to RSV; HGFs proliferation rate (MTT) (HGFs [5]; 10 µM, 48 h): slight increment of cell growth compared to RSV, but not in respect to the CTRL; HGFs proliferation rate (MTT) (HGFs [5]; 20 µM, 72 h): proliferative rate was lower; COL1 mRNA level (COL1 mRNA in HGFs; 5 µM, 48 h, compared to CTRL and RSV): significantly highest result; COL1 mRNA level (COL1 mRNA in HGFs; [16]): increase in COL1 mRNA level; FN1 mRNA level (FN1 mRNA in HGFs): no significant modifications; ALP mRNA level (ALP mRNA in HOBs): slight increase in the ALP mRNA level; OCN mRNA expression (OCN mRNA in HOBs; 5 µM, 48 h): increased after 48 h exposure to all 1d concentrations with statistical significance just for 5 µM; OCN mRNA expression (OCN mRNA in HOBs; 5 µM, 72 h, compared to CTRL): highest significant peak; OCN mRNA expression (OCN mRNA in HOBs; 10, 20 µM, 72 h): slightly promoted the enhancement of OCN expression; OCN mRNA expression (OCN mRNA in HOBs; 10 and 20 µM, 48 h): increased; Water solubility (Water solubility): insoluble in water; Chemical hydrolysis Kobs [9]: 0.050 (±0.004) h^−1; half-life at 18.2 µM [9]: 13.9 h; melting point: 182 to 183 °C"
